Measurements reported in PubChem BioAssay (NCI).
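Interpolation was linear, between the two tested concentrations surrounding the appropriate level; five concentrations were tested over 48 hours in 96-well plates. GI50: concentration for 50% inhibition of growth. TGI is the concentration that stops growth completely.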

Columns and labels:
Experiment in all cases: inhibition of tumour cell growth, NCI panel, 48 h
NCI/ADR-RES ovarian = test system: NCI/ADR-RES ovarian
MOLT-4 leukemia = test system: MOLT-4 leukemia
SK-MEL-2 melanoma = test system: SK-MEL-2 melanoma
TK-10 renal = test system: TK-10 renal
LOX IMVI melanoma = test system: LOX IMVI melanoma
MCF7 breast = test system: MCF7 breast
HCT-116 colon = test system: HCT-116 colon
SNB-75 CNS = test system: SNB-75 CNS
HS 578T breast = test system: HS 578T breast
MDA-MB-435 = test system: MDA-MB-435
SR leukemia = test system: SR leukemia
SW-620 colon = test system: SW-620 colon
NCI-H23 lung = test system: NCI-H23 lung
T-47D breast = test system: T-47D breast
A549 NSCLC = test system: A549 NSCLC
U251 CNS = test system: U251 CNS
SNB-19 CNS = test system: SNB-19 CNS
SF-295 CNS = test system: SF-295 CNS
SK-MEL-5 melanoma = test system: SK-MEL-5 melanoma
CCRF-CEM leukemia = test system: CCRF-CEM leukemia
IGROV1 ovarian = test system: IGROV1 ovarian
HCT-15 colon = test system: HCT-15 colon
ACHN renal = test system: ACHN renal
NCI-H226 lung = test system: NCI-H226 lung
HCC-2998 colon = test system: HCC-2998 colon
COLO 205 colon = test system: COLO 205 colon
NCI-H522 lung = test system: NCI-H522 lung
HOP-62 NSCLC = test system: HOP-62 NSCLC
SF-539 CNS = test system: SF-539 CNS
OVCAR-5 ovarian = test system: OVCAR-5 ovarian
SK-OV-3 ovarian = test system: SK-OV-3 ovarian
SF-268 CNS = test system: SF-268 CNS
OVCAR-4 ovarian = test system: OVCAR-4 ovarian
UACC-257 melanoma = test system: UACC-257 melanoma
BT-549 breast = test system: BT-549 breast
UO-31 renal = test system: UO-31 renal
MALME-3M melanoma = test system: MALME-3M melanoma
RPMI-8226 leukemia = test system: RPMI-8226 leukemia
EKVX NSCLC = test system: EKVX NSCLC
OVCAR-3 ovarian = test system: OVCAR-3 ovarian
786-0 renal = test system: 786-0 renal
KM12 colon = test system: KM12 colon
CAKI-1 renal = test system: CAKI-1 renal
NCI-H460 lung = test system: NCI-H460 lung
MDA-MB-231 breast = test system: MDA-MB-231 breast
M14 melanoma = test system: M14 melanoma
HL-60(TB) leukemia = test system: HL-60(TB) leukemia
HT29 colon = test system: HT29 colon
UACC-62 melanoma = test system: UACC-62 melanoma
SK-MEL-28 melanoma = test system: SK-MEL-28 melanoma
SN12C renal = test system: SN12C renal
DU-145 prostate = test system: DU-145 prostate
A498 renal = test system: A498 renal
K-562 leukemia = test system: K-562 leukemia
RXF 393 renal = test system: RXF 393 renal
OVCAR-8 ovarian = test system: OVCAR-8 ovarian

Structure (SMILES): CC(C)CC(Nc1c(O)ccc2ccccc12)C(=O)O (configuration not stated)
- TGI (NCI/ADR-RES ovarian): > 100 µM
- TGI (MOLT-4 leukemia): > 100 µM
- TGI (SK-MEL-2 melanoma): 42.5 µM
- TGI (TK-10 renal): > 100 µM
- TGI (LOX IMVI melanoma): > 100 µM
- TGI (MCF7 breast): > 100 µM
- TGI (HCT-116 colon): > 100 µM
- TGI (SNB-75 CNS): > 100 µM
- TGI (HS 578T breast): 95.9 µM
- TGI (MDA-MB-435): 45.6 µM
- TGI (SR leukemia): > 100 µM
- TGI (SW-620 colon): > 100 µM
- TGI (NCI-H23 lung): > 100 µM
- TGI (T-47D breast): > 100 µM
- TGI (A549 NSCLC): > 100 µM
- TGI (U251 CNS): > 100 µM
- TGI (SNB-19 CNS): > 100 µM
- TGI (SF-295 CNS): 66.6 µM
- TGI (SK-MEL-5 melanoma): 38.7 µM
- TGI (CCRF-CEM leukemia): > 100 µM
- TGI (IGROV1 ovarian): > 100 µM
- TGI (HCT-15 colon): > 100 µM
- TGI (ACHN renal): 76 µM
- TGI (NCI-H226 lung): 62.1 µM
- TGI (HCC-2998 colon): > 100 µM
- TGI (COLO 205 colon): > 100 µM
- TGI (NCI-H522 lung): > 100 µM
- TGI (HOP-62 NSCLC): > 100 µM
- TGI (SF-539 CNS): 47.6 µM
- TGI (OVCAR-5 ovarian): > 100 µM
- TGI (SK-OV-3 ovarian): 66.3 µM
- TGI (SF-268 CNS): 83.3 µM
- TGI (OVCAR-4 ovarian): > 100 µM
- TGI (UACC-257 melanoma): 50.3 µM
- TGI (BT-549 breast): 83.6 µM
- TGI (UO-31 renal): > 100 µM
- TGI (MALME-3M melanoma): 39.2 µM
- TGI (RPMI-8226 leukemia): > 100 µM
- TGI (EKVX NSCLC): 58.3 µM
- TGI (OVCAR-3 ovarian): 62.1 µM
- TGI (786-0 renal): > 100 µM
- TGI (KM12 colon): > 100 µM
- TGI (CAKI-1 renal): 47.4 µM
- TGI (NCI-H460 lung): > 100 µM
- TGI (MDA-MB-231 breast): > 100 µM
- TGI (M14 melanoma): > 100 µM
- TGI (HL-60(TB) leukemia): > 100 µM
- TGI (HT29 colon): > 100 µM
- TGI (UACC-62 melanoma): 72.3 µM
- TGI (SK-MEL-28 melanoma): > 100 µM
- TGI (SN12C renal): > 100 µM
- TGI (DU-145 prostate): > 100 µM
- TGI (A498 renal): 67.3 µM
- TGI (K-562 leukemia): > 100 µM
- TGI (RXF 393 renal): 35.8 µM

Structure (SMILES): CCCCNC(=O)Oc1ccc(/C(=C(/C)Cc2ccc(OC)cc2)c2ccc(OCCN3CCCC3)cc2)cc1
- GI50 (NCI/ADR-RES ovarian): 3.11 µM
- TGI (NCI/ADR-RES ovarian): 11.6 µM
- GI50 (MOLT-4 leukemia): 1.98 µM
- TGI (MOLT-4 leukemia): 7.72 µM
- GI50 (SK-MEL-2 melanoma): 2.13 µM
- TGI (SK-MEL-2 melanoma): 4.23 µM
- GI50 (TK-10 renal): 4.31 µM
- TGI (TK-10 renal): 17.8 µM
- GI50 (LOX IMVI melanoma): 1.67 µM
- TGI (LOX IMVI melanoma): 3.2 µM
- GI50 (MCF7 breast): 0.655 µM
- TGI (MCF7 breast): 2.51 µM
- GI50 (HCT-116 colon): 1.55 µM
- TGI (HCT-116 colon): 2.98 µM
- GI50 (SNB-75 CNS): 1.56 µM
- TGI (SNB-75 CNS): 4.5 µM
- GI50 (HS 578T breast): 2.11 µM
- TGI (HS 578T breast): 4.81 µM
- GI50 (MDA-MB-435): 1.63 µM
- TGI (MDA-MB-435): 3.1 µM
- GI50 (SR leukemia): 1.86 µM
- TGI (SR leukemia): 5.44 µM
- GI50 (SW-620 colon): 1.78 µM
- TGI (SW-620 colon): 3.36 µM
- GI50 (NCI-H23 lung): 2.26 µM
- TGI (NCI-H23 lung): 5.67 µM
- GI50 (T-47D breast): 1.39 µM
- TGI (T-47D breast): 4.37 µM
- GI50 (A549 NSCLC): 1.95 µM
- TGI (A549 NSCLC): 3.8 µM
- GI50 (U251 CNS): 1.82 µM
- TGI (U251 CNS): 3.31 µM
- GI50 (SNB-19 CNS): 3.47 µM
- TGI (SNB-19 CNS): 11.4 µM
- GI50 (SF-295 CNS): 1.65 µM
- TGI (SF-295 CNS): 3.14 µM
- GI50 (SK-MEL-5 melanoma): 1.66 µM
- TGI (SK-MEL-5 melanoma): 3.17 µM
- GI50 (CCRF-CEM leukemia): 2.57 µM
- TGI (CCRF-CEM leukemia): 7.41 µM
- GI50 (IGROV1 ovarian): 2.11 µM
- TGI (IGROV1 ovarian): 4.52 µM
- GI50 (HCT-15 colon): 1.5 µM
- TGI (HCT-15 colon): 3.13 µM
- GI50 (ACHN renal): 1.79 µM
- TGI (ACHN renal): 3.32 µM
- GI50 (NCI-H226 lung): 3.03 µM
- TGI (NCI-H226 lung): 11.4 µM
- GI50 (HCC-2998 colon): 1.83 µM
- TGI (HCC-2998 colon): 3.48 µM
- GI50 (COLO 205 colon): 1.83 µM
- TGI (COLO 205 colon): 3.57 µM
- GI50 (NCI-H522 lung): 2.02 µM
- TGI (NCI-H522 lung): 4.05 µM
- GI50 (HOP-62 NSCLC): 2.65 µM
- TGI (HOP-62 NSCLC): 11.3 µM
- GI50 (SF-539 CNS): 1.75 µM
- TGI (SF-539 CNS): 3.32 µM
- GI50 (OVCAR-5 ovarian): 3.6 µM
- TGI (OVCAR-5 ovarian): 12.7 µM
- GI50 (SK-OV-3 ovarian): 6.14 µM
- TGI (SK-OV-3 ovarian): 20.4 µM
- GI50 (SF-268 CNS): 1.98 µM
- TGI (SF-268 CNS): 4.4 µM
- GI50 (OVCAR-4 ovarian): 1.83 µM
- TGI (OVCAR-4 ovarian): 4.26 µM
- GI50 (OVCAR-8 ovarian): 2.04 µM
- TGI (OVCAR-8 ovarian): 4.38 µM
- GI50 (UACC-257 melanoma): 1.88 µM
- TGI (UACC-257 melanoma): 3.44 µM
- GI50 (BT-549 breast): 1.52 µM
- TGI (BT-549 breast): 2.98 µM
- GI50 (UO-31 renal): 1.65 µM
- TGI (UO-31 renal): 3.22 µM
- GI50 (MALME-3M melanoma): 1.7 µM
- TGI (MALME-3M melanoma): 3.28 µM
- GI50 (RPMI-8226 leukemia): 2.2 µM
- TGI (RPMI-8226 leukemia): 4.85 µM
- GI50 (EKVX NSCLC): 1.86 µM
- TGI (EKVX NSCLC): 5.5 µM
- GI50 (OVCAR-3 ovarian): 1.79 µM
- TGI (OVCAR-3 ovarian): 3.47 µM
- GI50 (786-0 renal): 1.51 µM
- TGI (786-0 renal): 2.91 µM
- GI50 (KM12 colon): 2.03 µM
- TGI (KM12 colon): 4.49 µM
- GI50 (CAKI-1 renal): 1.63 µM
- TGI (CAKI-1 renal): 3.5 µM
- GI50 (NCI-H460 lung): 1.81 µM
- TGI (NCI-H460 lung): 3.34 µM
- GI50 (MDA-MB-231 breast): 1.87 µM
- TGI (MDA-MB-231 breast): 3.49 µM
- GI50 (M14 melanoma): 1.81 µM
- TGI (M14 melanoma): 3.48 µM
- GI50 (HL-60(TB) leukemia): 1.64 µM
- TGI (HL-60(TB) leukemia): 3.82 µM
- GI50 (HT29 colon): 1.89 µM
- TGI (HT29 colon): 3.85 µM
- GI50 (UACC-62 melanoma): 1.94 µM
- TGI (UACC-62 melanoma): 3.59 µM
- GI50 (SK-MEL-28 melanoma): 1.83 µM
- TGI (SK-MEL-28 melanoma): 3.57 µM
- GI50 (SN12C renal): 1.77 µM
- TGI (SN12C renal): 3.27 µM
- GI50 (DU-145 prostate): 2.29 µM
- TGI (DU-145 prostate): 5.44 µM
- GI50 (A498 renal): 4.7 µM
- TGI (A498 renal): 18.5 µM
- GI50 (K-562 leukemia): 1.57 µM
- TGI (K-562 leukemia): 5.13 µM
- GI50 (RXF 393 renal): 2.07 µM
- TGI (RXF 393 renal): 3.79 µM
